Test results reported in patent US11400160B2, “Multifunctional conjugates” (E.P.O.S IASIS Research and Development Limited, priority 2017, dated 2022).
Entries after “also recorded” stand apart in the source; their conditions may differ.

Columns and labels:
[1] = tested on: mouse neonatal calvariae; assay: Calvarial organotypic bone growth assay (ex vivo); set-up: species or system mouse (Balb/c); conditions: ex vivo culture 10 days, FIG. 7; for bone formation in calvariae: above free BP or untreated
Method: Anexvivo model of cultured mouse neonatal calvariae to assess bone anabolic activity of each compound was performed as previously described by Garrett, I et al., (Methods Mol Med, 2003. 80: p. 183-198).
Briefly fifteen newborn, 4 day old Balb/c pubs were used for these experiments. Calvarial bones were dissected under sterile conditions and placed on sterile grids in 12 well plates containing culture media. Calvarial bones were cultured for 10 days in the presence of free γToc, BP-γToc or free BP. Bone morphogenetic protein 2 (BMP-2) was used as a positive control, with known bone anabolic activity in this assay.
Treatments were carried out in quadruplicate as shown below. Calvarial bones were embedded in paraffin wax and sections were stained with haematoxylin and eosin stain (H&E) and analysed using the nanozoom image analysis software.
• Untreated • Bpp(OEt) (BP) (15 μM) • BP (20 μM) • γ-Tocotrienol (15 μM) • γ-Tocotrienol (20 μM) • γ-Tocotrienol (100 μM) • BP-γ-tocotrienol conjugate (15 μM) • BP-γTocotrienol conjugate (20 μM) • BP-γ-Tocotrienol conjugate (100 μM) • BMP-2 (50 ng/ml)
New bone formation in treated calvariae was assessed by histological assessment of stained sections.

[2] = tested on: MCF-7 cells; assay: Cell viability, crystal violet colorimetric assay; type: cell-based; conditions: 72 hrs; for IC50: tested at 0.02-0.1 mM, unstarred values
Method: (§1) Immortalised osteolytic metastatic breast cancer cell lines, a) hormone-dependent MCF-7 and b) hormone refractory MDA-MB231, together with the daughter line MDA-MB231TXSA were incubated with 5 gradual concentrations of compounds of the invention as described below. Cell viability was assessed with the crystal violet colorimetric assay and IC50s were evaluated.
(§2) Medium was removed from cell cultures and cells were fixed with 4% v/v formaldehyde for 5 mins at room temperature. Formalin was then removed and CV added for 10 mins at room temperature followed by several washes with dsH2O. Samples were allowed to dry overnight. The following day, 10% acetic acid was added for 15 mins and optical density at 620 nm was measured. Optical densities versus compound concentrations were plotted in graphs and IC50s estimated by linear regression analysis using the WorkOut (VictorX4) software.
MCF-7, MDA-MB231 and MDA-MB231TXSA cells were seeded in 96-well-plates and allowed to attach overnight. […]
(§3) Cells were cultured in the presence of the compounds for 72 hrs and viability was assessed on day 3 by crystal violet assay. The cell lines were selected for their high bone metastatic potential. The fluorescently transfected line MB231TXSA, derived from line MB231 is also used in animal studies (WP7).

[3] = tested on: RAW264.7 cells; assay: In vitro osteoclastogenesis of RAW264.7 (TRAP staining); type: cell-based, murine; conditions: RANKL-differentiated; γ-tocopherol at 1 μg/ml and 201 μg/ml; bpp(OEt) at increasing concentrations; FIG. 4
Method: Human peripheral blood mononuclear cells (PBMCs) and the RAW264.7 murine monocytic cell line were differentiated into osteoclast-like cells in the presence of RANKL plus M-CSF and have been used as model systems of osteoclastogenesis. Osteoclast-like cells, from Giant Cell Tumours (GCT) of bone specimens from three independent donors were used to investigate the effect of compounds of the invention on the bone resorbing activity of mature osteoclasts.
Cells were cultured in 96-well plates at a density of 1×10^4 cells/well in DMEM medium with 10% FCS, L-glutamine (2 mM) and Hepes (20 mM). Cells were allowed to attach for 4 hrs before treatment with RANKL (50 ng/ml) in the presence or absence of increasing concentrations of compounds of the invention as above. Medium and treatments were replaced on day three and TRAP activity determined on day 5. The overall number of viable cells were determined by crystal violet staining.
Osteoclast cultures established by the differentiation of RAW264.7 cells in wells were fixed and stained for tartrate resistant acid phosphatase (TRAP) as recommended by the manufacturer on days 4 and 5. TRAP positive cells were visualised by light microscopy and images taken with a digital camera.

[4] = tested on: primary human osteoblast cultures; assay: Osteoblast mineralization (alizarin red, calcium in cell layer); type: cell-based; conditions: up to 15 days, osteo-inductive conditions; compared to free BP; alizarin red and calcium; FIG. 6
Method: The effect of free γToc and BP-γToc treatment on osteoblast function, using mineralized bone nodule-forming primary human osteoblast cultures was investigated.
Osteoblasts harvested from human donors at the time of joint replacement surgery were cultured up to 15 days in serum-containing medium under osteo-inductive conditions.

[5] = tested on: metastatic breast cancer cell lines (MCF-7, MDA-MB231, MDA-MB231TXSA); assay: Cell viability / antiproliferative activity, breast cancer lines; type: cell-based
Method: as §1, §2
MCF-7, MDA-MB231 and MDA-MB231TXSA cells were seeded in 96-well-plates and allowed to attach overnight. The following day media were replaced with fresh media containing the following compounds: Both free tetraethyl methylbisphosphonate (bpp(OEt)) and bpp(OEt) in 1:1 combination with the free chromanol and the biphosphonate conjugates were tested at 5 gradual concentrations of: 0.02, 0.04, 0.06, 0.08 and 0.1 mM.
as §3

[6] = tested on: Caspase-3 activity in MB231 breast cancer cell-line; assay: Caspase-3 enzymatic activity assay; type: cell-based
Method: Cells were grown in 12 well-plates in the presence of IC50 concentrations of compounds of the invention or culture medium with 0.1% v/v ethanol as control and were washed with PBS and incubated with lysis buffer for 15 mins at 4° C. Lysates were centrifuged at 15000 g. 20 μl of each lysate suspension was incubated with 100 μl of protease buffer containing 10 μM of fluorescent substrate zDEVD-AFC (3 samples/lysate) for 4 hrs at room temperature. Caspase-3 enzymatic activity was measured every 1 hr by fluorescence with excitation at 405 nm and emission at 515/30 nm.
Fluorescence measurements were plotted in graphs against time and were statistically analysed by two-way ANOVA followed by Bonferroni post-tests to identify statistically significant apoptotic activities of compounds of the invention (see FIG. 3).

| Structure (SMILES) | bone formation in calvariae [1] | EC50 ([2]; Exp.1, * denotes EC50 value, read-out: EC50 value (starred) MCF-7) [µM] | IC50 ([2]; Exp.2) [µM] | osteoclastogenesis of Raw264.7 [3] | matrix-containing mineralized nodules in osteoblast cultures [4] | bone formation compared with free γToc and BMP-2 positive control ([1]; listed as BP-γToc) | IC50 ([2]; Exp.1) [µM] | antiproliferative activity compared with bpp(OEt) ([5]; esterified compounds and 1:1 mixtures) | antiproliferative activity compared with γ-tocopherol ([5]; upon esterification of γ-tocopherol) | effect on cell viability ([5]; viability assays and IC50s, 72 hrs) | pro-apoptotic activity (Caspase-3 activity) ([6]; IC50 concentrations, two-way ANOVA with Bonferroni post-tests) | time-point at which the increased Caspase-3 activity was present ([6]; measured every 1 hr for 4 hrs) [h] |
| --- | --- | --- | --- | --- | --- | --- | --- | --- | --- | --- | --- | --- |
| Cc1c(O)cc2c(c1C)O[C@](C)(CCC[C@H](C)CCC[C@H](C)CCCC(C)C)CC2 [γ-toc, γ-tocopherol, reference compound] | significantly increased bone formation | 439 | 128 | increased osteoclastogenesis | progressively increased matrix-containing mineralized nodules |  |  |  |  |  |  |  |
| CCOP(=O)(OCC)C(CCC(=O)Oc1cc2c(c(C)c1C)OC(C)(CCCC(C)CCCC(C)CCCC(C)C)CC2)P(=O)(OCC)OCC (stereo not drawn) [γ-toc-bpp(OEt), γ-tocopheryl bisphosphonic ester] | significantly increased bone formation |  | 81.5 |  | progressively increased matrix-containing mineralized nodules | far superior to the free γToc; also recorded: even greater than that seen with the BMP-2 positive control | 114 | increased | increased | reduced cell viability | statistically significant pro-apoptotic activities | 3 |
